From paper PMC6030209, “Structure-Activity Investigations and Optimisations of Non-metabolite Agonists for the Succinate Receptor 1” (Scientific Reports, 2018) come the findings set out here.

Assay type in all cases: cell-based
The target in one test is T1, hSUCNR1 (Homo sapiens, UniProt Q9BXA5).
T1 construct: FLAG (own knowledge: pCMV-Tag 2B is an N-terminal FLAG vector); host or cells: HEK-293, transient transfection with Lipofectamine-2000
T1 sequence (Q9BXA5 1-334): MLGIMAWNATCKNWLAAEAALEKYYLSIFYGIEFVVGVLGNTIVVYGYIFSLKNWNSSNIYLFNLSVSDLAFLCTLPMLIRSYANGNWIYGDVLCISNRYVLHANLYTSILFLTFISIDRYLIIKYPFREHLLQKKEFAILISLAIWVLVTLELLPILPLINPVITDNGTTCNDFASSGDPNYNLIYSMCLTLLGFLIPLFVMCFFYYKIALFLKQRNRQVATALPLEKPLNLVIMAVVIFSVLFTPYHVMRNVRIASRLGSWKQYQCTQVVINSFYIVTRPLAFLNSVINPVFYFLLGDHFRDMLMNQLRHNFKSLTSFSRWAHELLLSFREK
As to the kind of experiment: IP3 turnover assay in hSUCNR1 transfected HEK-293 cells. The conditions noted are these: for hSUCNR1 % @10^−4M / hSUCNR1 efficacy, %: IP3 turnover; for hSUCNR1 % @10^−4M: relative to succinate (100%); for hSUCNR1 efficacy, %: efficacy relative to succinate (100%), HEK cells (N = 3). Here is the method: (§1) Receptor constructs for mSUCNR1 and hSUCNR1 were bought from Origene and cloned into the eukaryotic expression vector pCMV-Tag(2B) (Stratagene).
(§2) Transient transfection of the HEK-293 cells was done with Lipofectamine-2000 according to manufacturer’s protocol. Cells were supplemented with fresh medium after 5 h.
(§3) 96-well plates were coated with poly-D-lysine and HEK-293 cells were plated (35.000 cells/well). Cells were transfected for 5 h the following day and subsequently incubated O/N with 0.5 μCi/mL myo[3H]inositol (Perkin Elmer) in 100 μL growth medium. On day 3 cells were washed with 200 µL HBSS/well (Gibco, Life Technologies) followed by a pre-incubation (30 min, 37 °C) with 100 µL HBSS supplemented with 10 mM LiCl. Cells were stimulated with ligand (120 min, 37 °C) and lysed with 50 µL 10 mM formic acid (30 min on ice). In a white 96 well plate 20 µL cell extracts and 80 µL 1:8 diluted YSi scintillation beads (Perkin Elmer) were mixed. The plate was spun down, and a Packard Top Count NXT counter recorded light emission (scintillation) after an 8 h delay.

The target of a further test is T2, mSUCNR1 (Mus musculus, UniProt Q99MT6).
T2 construct: FLAG (own knowledge: pCMV-Tag 2B is an N-terminal FLAG vector); host or cells: HEK-293, transient transfection with Lipofectamine-2000
T2 sequence (Q99MT6 1-317): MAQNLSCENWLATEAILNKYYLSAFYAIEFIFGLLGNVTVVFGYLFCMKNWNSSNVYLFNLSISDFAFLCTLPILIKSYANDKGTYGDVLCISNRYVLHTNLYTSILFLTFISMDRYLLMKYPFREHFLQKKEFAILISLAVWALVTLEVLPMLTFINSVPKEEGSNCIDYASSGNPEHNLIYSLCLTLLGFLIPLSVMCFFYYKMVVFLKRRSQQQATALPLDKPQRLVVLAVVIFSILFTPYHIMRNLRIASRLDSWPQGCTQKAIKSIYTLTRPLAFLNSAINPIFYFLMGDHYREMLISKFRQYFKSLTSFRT
As to the kind of experiment: IP3 turnover assay in mSUCNR1 transfected HEK-293 cells. The note with it: for mSUCNR1 % @10^−4M / mSUCNR1 efficacy, %: IP3 turnover; for mSUCNR1 % @10^−4M: relative to succinate (100%); for mSUCNR1 efficacy, %: efficacy relative to succinate (100%), HEK cells (N = 3). On the procedure: as §1, §2, §3

For the next test, the system named is SUCNR1. As to the kind of experiment: Active/inactive grouping by EC50 threshold (ALiBERO training set, Table S1). The note with it: active (1) / inactive (0), EC50 threshold of 10 µM. An excerpt:
In brief, starting from the homology model supported by mutagenesis data[4], ALiBERO introduced receptor flexibility via Normal Mode Analysis and Monte Carlo sampling, to generate a small subset of receptor models (pockets). […] For a list of all compounds used in the optimisation protocol, see Table S1. Receptor structures were then chosen based on their ability to discriminate actives from inactives in a retrospective virtual screening using the docking protocol and scoring function in ICM (Molsoft L.L.C., San Diego, CA, USA)[20], as measured by the normalised square root area under the curve (NSQ_AUC). […] The ALiBERO-optimised receptor ensemble was subsequently validated in a virtual ligand screening using an external test set with a higher active:decoy ratio (~1:50).
ALiBERO is an iterative sampling-selection protocol for receptor optimisation that relies on the use of ligand information for selecting the best-performing receptor conformations. Homology models of the mouse SUCNR1 receptor were constructed according to Trauelsen et al.[4] and loaded into ICM (Molsoft L.L.C., San Diego, CA, USA). The structure was converted into an ICM object, thereby assigning protein atom types, optimising hydrogens and His, Pro, Asn, […] and Cys side-chain conformations. […] For a list of all compounds used in the optimisation protocol, see Table S1. ALiBERO was performed using the prepared receptor structure and ligand training set as input. Binding site residues were manually selected based on proximity to the position of MRS2500 in the superimposed structure of the P2Y1 receptor (PDB 4XNW). 100 elastic network normal mode analysis derived conformers were built in order to recreate backbone and side-chain flexibility (T = 300 K). Next, a flexible-ligand static-receptor small-scale virtual screening was performed on each of the receptor conformers, from which several pockets were selected for the following generation. The ligand and decoy molecules were docked into mSUCNR1, represented as pre-calculated potential grids and then sorted according to their ICM VLS scores. The maximum number of complementary pockets for each generation was set to 5 with a maximum of 10 generations. Receptor models were selected based on their combined screening performance, as determined by the normalised square root area under the curve, NSQ_AUC. After each round of virtual screening, an all-atom Monte Carlo side-chain refinement was performed to account for induced-by-ligand changes. NSQ_AUC values were calculated according to Katritch et al.[16].

[1] abbreviates: dose-response curves of induction of IP3 turnover in SUCNR1 transfected HEK cells (N = 3), read-out: hSUCNR1 pEC50 (converted).
[2] abbreviates: dose-response curves of induction of IP3 turnover in SUCNR1 transfected HEK cells (N = 3), read-out: mSUCNR1 pEC50 (converted).
Where [3] appears, read: dose-response curves of induction of IP3 turnover in SUCNR1 transfected HEK cells (N = 3).
The mark [4] stands for this setting: relative to the 4-methoxy compound 17.

Read-outs that look alike come from different tables or passages of the source.

Take `O=C(O)C[C@H](NC(=O)Cc1ccc(-c2ccc(F)cc2)cc1)C(=O)O` [Compound 9, (2-(4′-Fluoro-[1,1′-biphenyl]-4-yl)acetyl)-L-aspartic acid]: at hSUCNR1, the “hSUCNR1 % @10^−4M” value was found to be 25% @10^−4M. The “mSUCNR1 % @10^−4M” value on mSUCNR1 was found to be 15% @10^−4M. Further, in the test with SUCNR1, the Active is 0 (inactive (0)).
`CCCOc1ccc(-c2cccc(C(=O)N[C@@H](CC(=O)O)C(=O)O)n2)cc1` [Compound 33, (6-(4-Propoxyphenyl)picolinoyl)-L-aspartic acid]: the results for the EC50 on hSUCNR1 (setting [1]) and at mSUCNR1 (setting [2]) were 0.0589 µM and 0.0513 µM, respectively. Besides, on hSUCNR1, the “hSUCNR1 efficacy, %” value is 66.4 ± 7.2%. Further, the “mSUCNR1 efficacy, %” value at mSUCNR1 is reported as 61.5 ± 3.8%.
As for `Cc1ccccc1-c1ccc(C(=O)N[C@@H](CC(=O)O)C(=O)O)o1` [Compound 11, (5-(o-Tolyl)furan-2-carbonyl)-L-aspartic acid], at hSUCNR1, the EC50 was 5.37 µM and the “hSUCNR1 efficacy, %” value was 94.7 ± 8.7%. Also, on mSUCNR1, the EC50 was 0.741 µM and the “mSUCNR1 efficacy, %” value amounted to 76.7 ± 3.1%. Moreover, in the test on SUCNR1, the Active is 1 (active (1)).
In the same order, the values of `CC(C)Oc1ccc(-c2ccc(C(=O)N[C@@H](CC(=O)O)C(=O)O)o2)cc1` [Compound 22, (5-(4-Isopropoxyphenyl)furan-2-carbonyl)-L-aspartic acid] are 0.145 µM, 69.6 ± 4.3%, 0.0513 µM, 75.6 ± 1.7% and 1 (active (1)).
Take `O=C(O)C[C@H](NC(=O)c1cccc(-c2ccc(F)cc2)n1)C(=O)O` [Compound 27, (6-(4-Fluorophenyl)picolinoyl)-L-aspartic acid]: the figures for the EC50 at hSUCNR1 (setting [1]) and at mSUCNR1 (setting [2]) were 0.933 µM and 0.794 µM, respectively. Besides, on hSUCNR1, the “hSUCNR1 efficacy, %” value is 78.2 ± 8.0%. Further, the “mSUCNR1 efficacy, %” value at mSUCNR1 stood at 89.3 ± 6.1%. For the same compound, in the test on SUCNR1, the Active is 1 (active (1)).
In the same order, the values of `COc1ccc(-c2cccc(C(=O)N[C@@H](CC(=O)O)C(=O)O)c2)cc1` [Compound 28, (4′-Methoxy-[1,1′-biphenyl]-3-carbonyl)-L-aspartic acid] are 0.162 µM, 1.2 µM, 58.0 ± 2.7%, 64.0 ± 2.5% and 1 (active (1)).
For `COc1ccc(-c2cccc(C(=O)N[C@@H](CC(=O)O)C(=O)O)n2)cc1` [Compound 29, (6-(4-Methoxyphenyl)picolinoyl)-L-aspartic acid], the EC50 on hSUCNR1 (setting [1]) is 0.141 µM; at mSUCNR1 (setting [2]) it was 0.182 µM. In addition, the “hSUCNR1 efficacy, %” value on hSUCNR1 was determined as 52.6 ± 3.9%. The “mSUCNR1 efficacy, %” value at mSUCNR1 turned out to be 71.2 ± 3.2%. In the test with SUCNR1, the Active is recorded as 1 (active (1)).
With `O=C(O)C[C@H](NC(=O)c1ccc(Br)cc1)C(=O)O` [Compound 7, (4-Bromobenzoyl)-L-aspartic acid], the “hSUCNR1 % @10^−4M” value on hSUCNR1 amounted to 8% @10^−4M. Besides, at mSUCNR1, the “mSUCNR1 % @10^−4M” value came to 15% @10^−4M. For the same compound, the Active with SUCNR1 is 0 (inactive (0)).
Take `CC1(COc2ccc(-c3ccc(C(=O)N[C@@H](CC(=O)O)C(=O)O)o3)cc2)COC1` [Compound 23, (5-(4-((3-Methyloxetan-3-yl)methoxy)phenyl)furan-2-carbonyl)-L-aspartic acid]: at hSUCNR1, the EC50 is 0.537 µM and the “hSUCNR1 efficacy, %” value amounted to 76.5 ± 3.1%. Also, on mSUCNR1, the EC50 was 0.107 µM and the “mSUCNR1 efficacy, %” value is listed as 82.4 ± 1.9%. Also, on mSUCNR1 (relative to the 4-methoxy compound 17, orthologue not stated), the reduction of potency is on record as over 2 fold. For the same compound, the Active in the test on SUCNR1 is 1 (active (1)).
Consider `O=C(O)C[C@H](NC(=O)c1ccc(Br)o1)C(=O)O` [Compound 4, (5-Bromofuran-2-carbonyl)-L-aspartic acid], for which, at hSUCNR1 (setting [3]), the “hSUCNR1 pEC50” value is recorded as 4.53 ± 0.13. Further, the “hSUCNR1 efficacy, %” value at hSUCNR1 is on record as 78.1 ± 7.5%. Further, the “mSUCNR1 pEC50” value at mSUCNR1 (setting [3]) is 4.93 ± 0.05. In addition, the “mSUCNR1 efficacy, %” value on mSUCNR1 stood at 95.8 ± 2.9%. For the same compound, the Active in the test with SUCNR1 was 0 (inactive (0)).
Turning to `CS(=O)(=O)CCCOc1ccc(-c2ccc(C(=O)N[C@@H](CC(=O)O)C(=O)O)o2)cc1` [Compound 24, (5-(4-(3-(Methylsulfonyl)propoxy)phenyl)furan-2-carbonyl)-L-aspartic acid], on hSUCNR1, the EC50 was 0.794 µM and the “hSUCNR1 efficacy, %” value is listed as 63.9 ± 2.4%. At mSUCNR1, the EC50 is 0.0468 µM and the “mSUCNR1 efficacy, %” value is 74.6 ± 2.1%. For the same compound, the Active in the test with SUCNR1 is 1 (active (1)).
As for `O=C(O)C[C@H](NC(=O)c1cccc(-c2ccc(F)cc2)c1)C(=O)O` [Compound 25, (4′-Fluoro-[1,1′-biphenyl]-3-carbonyl)-L-aspartic acid], the EC50 at hSUCNR1 (setting [1]) is 1.23 µM; on mSUCNR1 (setting [2]), 3.98 µM. At hSUCNR1, the “hSUCNR1 efficacy, %” value amounted to 49.7 ± 3.9%. Also, on mSUCNR1, the “mSUCNR1 efficacy, %” value is 58.0 ± 4.5%. Moreover, on mSUCNR1 (relative to 3), the “decrease in potency on the mouse orthologue” value is reported as 10 fold. Besides, in the test on SUCNR1, the Active is reported as 1 (active (1)).
Turning to `O=C(O)C[C@H](NC(=O)c1ccc(-c2ccc(OC(F)(F)F)cc2)o1)C(=O)O` [Compound 20, (5-(4-(Trifluoromethoxy)phenyl)furan-2-carbonyl)-L-aspartic acid], on hSUCNR1, the EC50 is 0.102 µM and the “hSUCNR1 efficacy, %” value was 61.7 ± 3.6%. The “increase in potency on hSUCNR1” value on hSUCNR1 (setting [4]) was 2 fold. On mSUCNR1, the EC50 was 0.191 µM and the “mSUCNR1 efficacy, %” value turned out to be 69.7 ± 2.8%. Also, the “decrease in potency on mSUCNR1” value on mSUCNR1 (setting [4]) is listed as over 4 fold. The Active with SUCNR1 is given as 1 (active (1)).
Turning to `COc1ccccc1-c1ccc(C(=O)N[C@@H](CC(=O)O)C(=O)O)o1` [Compound 16, (5-(2-Methoxyphenyl)furan-2-carbonyl)-L-aspartic acid], on hSUCNR1, the EC50 is 5.13 µM and the “hSUCNR1 efficacy, %” value came to 103.8 ± 7.9%. Also, on mSUCNR1, the EC50 was 0.724 µM and the “mSUCNR1 efficacy, %” value turned out to be 78.1 ± 3.1%. Also, in the test on SUCNR1, the Active is 1 (active (1)).
Regarding `O=C(O)C[C@H](NC(=O)c1cccc(-c2ccc(OCC(F)(F)F)cc2)n1)C(=O)O` [Compound 32, (6-(4-(2,2,2-Trifluoroethoxy)phenyl)picolinoyl)-L-aspartic acid], the values for the EC50 on hSUCNR1 (setting [1]) and on mSUCNR1 (setting [2]) were 0.0589 µM and 0.1 µM, respectively. Moreover, at hSUCNR1, the “hSUCNR1 efficacy, %” value is 88.7 ± 6.1%. Further, the “mSUCNR1 efficacy, %” value at mSUCNR1 was determined as 68.1 ± 2.5%.
